The values that follow come from patent publication US9980919B2, “Preparation of pH-responsive nanoparticles and promoted delivery of anticancer drugs into deep tumor tissues and application thereof” (NATIONAL TSING HUA UNIVERSITY, priority 2015, dated 2018).

Common to all, as to type: in vivo, C57BL/6J mice
Series [1] has as its system TRAMP-C1 tumor. Description: ICG fluorescence accumulated in organs and tumor of TRAMP-C1 tumor-bearing mice (IVIS). Conditions: 48 hours after tail vein injection; ICG 1.6 mg/kg. As for the experimental part:
(§1) Please refer to FIGS. 12 and 14. […] To establish tumor model, 2×10^7 TRAMP-C1 cells were subcutaneously injected into the right thigh of mice. Two weeks post-inoculation, the low permeability tumor model was established. Tumor volume (V) was calculated as follows: V=L×W^2/2, where W is the tumor measurement at the widest point and L the tumor dimension at the longest point. […] The fluorescence signals of ICG (Ex. 745 nm and Em. 810 nm) at 2, 4, 6, 24 and 48 h post-injection were collected on the IVIS. The treated mice were then sacrificed and the major organs harvested for individual organ imaging by IVIS. After tail vein injection for 48 hours and observation in vivo experiments, the mouse was sacrificed and its major organs and tumors taken for detecting ICG fluorescent performance of each organ using a non-invasive in vivo imaging system (IVIS).

Series [2] relates to TRAMP-C1 tumor. As to the kind of experiment: Tumor local temperature under 808 nm NIR laser irradiation (infrared thermal imaging camera). Conditions: 6 hours post-injection; 808 nm laser 1.0 W/cm^2, 5 min; ICG 1.6 mg/kg I.V. The protocol:
(§2) Please refer to FIG. 15. FIG. 15 is a time—temperature figure of the pH-responsive ICG/DOX-loaded NHTPNs of an embodiment in the instant disclosure. […] 6 hours post-injection, the mice (5 in each group) were irradiated at the tumor sites with 808 nm laser (1.0 W/cm^2) for 5 min. The tumor volumes of various groups were measured daily and normalized against the original volumes to assess the antitumor efficacy. The tumor local temperature was monitored by infrared thermal imaging camera.

The subject of series [3] is TRAMP-C1 tumor. Description: Tumor growth inhibition (relative tumor volume over 15 days) in TRAMP-C1 tumor-bearing mice. Conditions: with NIR laser (+laser). As for the experimental part: as §1, §2

Take `CC1(C)C(/C=C/C=C/C=C/C=C2\N(CCCCS(=O)(=O)O)c3ccc4ccccc4c3C2(C)C)=[N+](CCCCS(=O)(=O)[O-])c2ccc3ccccc3c21` [Free ICG, indocyanine green]: in the series with TRAMP-C1 tumor [1], the “ICG fluorescent expression in the tumor” value is listed as “no fluorescent expression in the tumor” and the “organ in which the ICG fluorescence is expressed” value is recorded as “mostly expressed in the liver”. Besides, the “highest temperature in the tumor” value with TRAMP-C1 tumor [2] is 41.4 °C. Further, the “tumor growth inhibition effect” value in the series with TRAMP-C1 tumor [3] is recorded as “no significant tumor growth inhibition effect”.
